Results as given in Sander's compilation of Henry's law constants (doi:10.1016/j.ijggc.2017.01.001).

Assay: Henry solubility constant Hcp at 313 K (mol/(m3 Pa))
Conditions: reference: Du et al. (2017)

| Structure (SMILES) | Henry solubility constant Hcp at 313 K |
| --- | --- |
| CCN(CC)CCO [2-(diethylamino)ethanol] | 5.9 |
| Cn1ccnc1 [1-methyl-1H-imidazole] | 69 |
| CC(C)(N)CO [2-amino-2-methyl-1-propanol] | 210 |
| COCCCN [3-methoxy-1-propanamine] | 21 |
| CCC(N)(CO)CO [2-amino-2-ethyl-1,3-propanediol] | 710 |
| CCN(CC)CC(O)CO (stereo not given) [3-(diethylamino)-1,2-propanediol] | 540 |
| COCCNCCOC [bis(2-methoxyethyl)amine] | 110 |
| Cc1nccn1C [1,2-dimethylimidazole] | 43 |
| CN(CCO)CCO [N-methyldiethanolamine] | 3300 |
| OCCC1CCCCN1 (stereo not given) [2-piperidineethanol] | 390 |
| CCc1ncc[nH]1 [2-ethylimidazole] | 760 |
| CN1C2CCC1CC(O)C2 (stereo not given) [tropine] | 1300 |
| CN1CCC(O)CC1 [4-hydroxy-N-methylpiperidine] | 1300 |
| CCc1ncc(C)[nH]1 [2-ethyl-4-methylimidazole] | 280 |
| CN(C)CCOCCO [dimethylaminoethoxyethanol] | 830 |
| CN(C)CC(O)CO (stereo not given) [3-(dimethylamino)-1,2-propanediol] | 670 |
| OCCN1CCCCC1 [1-(2-hydroxyethyl)piperidine] | 51 |
| NCc1cccnc1 [3-(aminomethyl)pyridine] | 430 |
| Cc1ncc[nH]1 [2-methyl-1H-imidazole] | 810 |
| CC(C)NCCO [2-(isopropylamino)ethanol] | 110 |
